Here are results for 2 molecules from patent publication US6399570B1, “Antimicrobial/endotoxin neutralizing polypeptide” (priority 1999, dated 2002).

One data set has as its system Lipid A. Description: Limulus ELISA, ENC50 against Lipid A. The class given is biochemical, E. coli K12. As for the experimental part: The peptide-mediated inhibition of endotoxin-induced Limulus amebocyte lysate (LAL) coagulation was measured with a sensitive LAL assay (Zhang et al., J. Clin. Microbiol. 32: 416-422 (1994)). Limulus ELISA is an endotoxin assay based on activation of the LAL coagulation by endotoxin and detection of the generated peptide-C immunoreactivity with an ELISA using a monoclonal antibody to the polypeptide. Endotoxin was defined to be neutralized when it lost its ability to activate the LAL enzymes. The 50% endotoxin-neutralizing concentration (ENC50) reflects the potency of an anti-endotoxin agent; a low ENC50 indicates high potency. Table 2 lists the determined ENC50 value of each anti-endotoxin agent against lipid A and four different types of LPS. The potency of each anti-endotoxin agent varied depending on the type of endotoxin. […] The only difference between the sequence of LF-33 and LF-27 is that LF-27 lacks the first six residues (GRRRRS) at the N-terminus of LF-33. Remarkably, this deletion led to dramatic loss of the endotoxin-neutralizing capacity of the polypeptide in this assay. Binding of serum proteins to endotoxin neutralizes the endotoxin activity in this assay by preventing endotoxin from activating LAL (Emancipator et al., Infect. Immun. 60: 596-601 (1992)).
LPS. […] LPS (purity >99%) from Neisseria meningitidis was prepared from the group B strain #6275 and its potency was 25 EU/ng. […] The potency of the above endotoxin was determined with the Limulus enzyme-linked immunosorbent assay (ELISA, 43) in comparison with US Pharmacopeia reference standard endotoxin EC-5.
Briefly, 25 μl endotoxin solution (200 EU/ml) was mixed with an equal volume of test materials in a series of two-fold dilution in 0.15 M NaCl in a sterile 96-well tissue culture plate (Nunc A/S, Roskilde, Denmark), and incubated at 37° C. for 1 h in a dry-air incubator. […] The endotoxin activity was then quantified with the use of Limulus ELISA (Zhang et al., J. Clin. Microbiol. 32: 416-422 (1994)). […] The high sensitivity of the assay allowed for very low levels of the endotoxin activity to be detected. […]

For the next data set, the target named is T1, cathepsin D (Bos taurus, UniProt P80209).
T1 construct: Prior to digestion with bovine spleen cathepsin D (Sigma); purchased Sigma; host or cells: bovine spleen (tissue-derived enzyme)
Description: Exposure of LF digest to cathepsin D, persistence of the 6 kDa polypeptide. The format is in vitro ADME, bovine. To be noted: immunoblot. From the text: To establish which protease(s) could be responsible for releasing the N-terminal domain, LF processing by several proteases relevant to inflammation or microbial infections, including elastase, cathepsins G and D, a matrix metalloproteinase, and the “V8” protease from S. aureus, was examined. Of these, only cathepsin D, a lysosomal protease abundant in phagocytes (Bever et al., Inflammation 13: 309-16 (1989); Levy et al., Infect. Immun. 57: 1632-4 (1989)), was able to liberate the N-terminus intact as a small, heparin-binding, polypeptide. Exposure of either iron-saturated or iron-free LF to even small amounts of cathepsin D (1/200th, w:w) for a period as brief as five minutes yielded the N-terminal 6 kDa polypeptide, detectable by immunoblot analysis, using the N-terminal peptide-specific antibody. […] MALDI mass spectrometry analysis indicated a molecular mass of 5741 Da, very close to the value of 5744 Da expected for a LF polypeptide starting at Gly-1 and ending with Ala-49.
Purification of LF from human colostrum and proteolytic liberation of the antimicrobial domain in vitro. Frozen colostrum was thawed at 37° C. and defatted by centrifugation for 40 min at 10,000×g at 4° C. […] LF concentration was determined spectrophotometrically at 280 nm (using E280nm 1 cm 0.1%=1.0402). […]

T1 sequence (P80209 45-390): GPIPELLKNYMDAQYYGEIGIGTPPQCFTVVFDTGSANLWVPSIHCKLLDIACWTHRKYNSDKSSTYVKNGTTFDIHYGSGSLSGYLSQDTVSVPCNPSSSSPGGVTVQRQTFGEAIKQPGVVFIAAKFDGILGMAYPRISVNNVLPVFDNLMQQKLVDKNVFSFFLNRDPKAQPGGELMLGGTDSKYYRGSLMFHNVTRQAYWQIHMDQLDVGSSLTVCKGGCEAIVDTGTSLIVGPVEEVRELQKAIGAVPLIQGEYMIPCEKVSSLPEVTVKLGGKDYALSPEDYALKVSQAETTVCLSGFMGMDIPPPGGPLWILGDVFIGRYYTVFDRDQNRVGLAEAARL

As to `CSCC[C@H](NC(=O)[C@H](CC(N)=O)NC(=O)[C@H](CCCNC(=N)N)NC(=O)[C@H](CCC(N)=O)NC(=O)[C@H](Cc1c[nH]c2ccccc12)NC(=O)[C@H](CCC(N)=O)NC(=O)[C@H](Cc1ccccc1)NC(=O)[C@H](CS)NC(=O)[C@H](CCCCN)NC(=O)[C@@H](NC(=O)[C@H](C)NC(=O)[C@H](CCC(=O)O)NC(=O)[C@@H]1CCCN1C(=O)[C@H](CCC(N)=O)NC(=O)[C@H](CO)NC(=O)[C@@H](NC(=O)[C@H](C)NC(=O)[C@H](CS)NC(=O)[C@H](Cc1c[nH]c2ccccc12)NC(=O)[C@H](CCC(N)=O)NC(=O)[C@@H](N)C(C)C)C(C)C)[C@@H](C)O)C(=O)N[C@@H](CCCNC(=N)N)C(=O)N[C@@H](CCCCN)C(=O)N[C@H](C(=O)N[C@@H](CCCNC(=N)N)C(=O)NCC(=O)N1CCC[C@H]1C(=O)O)C(C)C` [LF-27], the “fold less potent than LF-33 at neutralizing lipid A” value with Lipid A is recorded as “approximately 10 fold”. In addition, the midpoint of inhibition in the data set with Lipid A (endotoxin 200 EU/ml, mean +/− SD), the IC50, lay at 630 nM.

As to “6 kDa polypeptide: 6 kDa fragment produced by cathepsin D digestion of human LF, amino acids 1-49 of SEQ ID NO: 2 (GRRRRSVQWCAVSQPEATKCFQWQRNMRKVRGPPVSCIKRDSPIQCIQA; listed as Homo sapiens)”, in the data set with cathepsin D, the “stability of the polypeptide on longer exposure to cathepsin D” value is “stable and resistant to further degradation for at least three days”.
